Test results published in publication PMC5727842, “Antioxidant and Antidiabetic Effects of Flavonoids: A Structure-Activity Relationship Based Study” (BioMed Research International, 2017).

Columns and labels:
[1] = Rapid screening of radical scavenging activity by dot blot assay (DPPH staining); conditions: silica sheet stained with DPPH in MeOH, dilutions from 1000 μg/mL
Protocol: An aliquot (20 μL) of each dilution of each group was carefully loaded on a […] TLC plate and allowed to dry for 10 min. Drops of each sample were loaded in the order of decreased concentration along the 16 columns. The staining of the silica plate was based on the procedure of Soler-Rivas et al.. […] The intensity of the yellow color depends upon the amount and nature of radical scavenger present in the flavonoids.

[2] = DPPH radical scavenging assay; conditions: 30 min, 517 nm, mean ± SEM (n = 3)
Protocol: Each sample's stock solution was diluted to final concentrations of 1000–0.4889 μg/mL in MeOH. A total of 1 mL of a 0.3 mM DPPH methanolic solution was added to 2.5 mL of sample solution of different concentrations and allowed to react at room temperature. After 30 min, the absorbance (Abs) values were measured at 517 nm with a microplate reader (Tecan NanoQuant Infinite M200, Switzerland) and converted into the percentage antioxidant activity using the following equation described previously: (1) % antioxidant activity=100−Abssample−Abssample blank/Abscontrol−Abscontrol blank×100. MeOH + compound solution was used as a blank, while DPPH solution plus MeOH was used as a negative control. The positive controls were DPPH solution plus 1 mM ascorbic acid. The IC50 values were calculated by linear regression of plots. The average percent of scavenging capacity was taken from three replicates.

[3] = ABTS+ radical scavenging assay; conditions: 734 nm, mean ± SEM (n = 3)
Protocol: An improved ABTS^+ radical decolorization assay was carried out involving direct production of the blue/green ABTS^+ chromophore through the reaction between ABTS and potassium persulfate. Addition of antioxidant to the preformed radical cation reduces it to ABTS to an extent on a time scale depending on the antioxidant activity, the concentration of the antioxidant, and the duration of the reaction. 1 ml ABTS was dissolved in water to make 7 mM concentration of the resultant solution. […] The resultant reaction mixture was allowed to stand in the dark at room temperature for 12–16 h before being used. The ABTS^+ radical solution was diluted with MeOH to an absorbance of 0.7 (±0.02) at 734 nm. Then, 100 μl of sample at various concentrations (1000–0.4889 μg/mL) was mixed with 100 μL of diluted ABTS^+ radical. Each concentration was analyzed in triplicate and the percentage decrease of absorbance at 734 nm with a microplate reader (Tecan NanoQuant Infinite M200, Switzerland) was calculated for each point and the antioxidant capacity of the tested compounds was expressed as percent inhibition (%). The radical scavenging activity of the compounds was measured according to the following equation [29]:(2) % inhibition=Acontrol−Asample/Acontrol×100. IC50 values were calculated by linear regression of plots, and the average percent of scavenging capacity was taken from three replicates. Trolox was used as a standard in comparison for the determination of the antioxidant activity of the flavonoids.

[4] = biological target: T1, xanthine oxidase from buttermilk (Bos taurus, UniProt P80457); experiment: Xanthine oxidase inhibitory assay (XOI); assay type: biochemical; conditions: for xanthine oxidase inhibitory effect (in words): discussion
T1 construct: 0.3 U/mL enzymes (xanthine oxidase from buttermilk); purchased Sigma-Aldrich (Singapore); host or cells: buttermilk (natural source)
Protocol: XO catalyzes the oxidation of hypoxanthine to xanthine and subsequently to uric acid. The inhibition of XO reduces both vascular oxidative stress and circulating levels of uric acid. This assay is based on the fact that the superoxide anions are generated by the xanthine. The xanthine oxidase inhibitory activity was measured spectrophotometrically (Tecan NanoQuant Infinite M200, Switzerland) at 295 nm under aerobic condition with slight modification. The reaction mixture contained 50 mM phosphate buffer (pH 7.5), 0.15 mM xanthine (substrate), and 0.3 U/mL enzymes (xanthine oxidase from buttermilk). Samples were prepared by dissolving 1 mg in 5% DMSO in MeOH which gives sample concentration of 144.0 μg/mL in assay. […] The absorption increment at 295 nm indicates the formation of […] of uric acid/min at 25°C. […] All determination was done in triplicate and half maximal concentration (IC50) values were calculated from the percentage of inhibition. XO inhibition activity was expressed as the percentage inhibition of XO as follows:(3) % of inhibition=AbsA−B−C−D/AbsA−B×100, where A is the negative control with B as the blank of A which is without the enzyme and the sample while C is the activity of the sample with enzyme with D as the blank of the sample without enzyme.

[5] = Ferric reducing antioxidant power (FRAP); conditions: for FRAP (AAE μg): ascorbic acid equivalent, mean ± SEM (n = 3), Table 2
Protocol: This assay was based on the reduction of the ferric tripyridyltriazine (Fe III-TPTZ) complex to the ferrous ion (Fe II) at a low pH forming an intense blue color. In the FRAP assay, compounds that are rich in antioxidant effect exert their action by breaking the free radical chain by donating a hydrogen atom. Briefly, ferric reducing antioxidant power (FRAP) reagent (2.5 mL of a 10 mM TPTZ solution in 40 mM HCl, 2.5 mL of 20 mM FeCl3, and 25 mL of 0.1 M acetate buffer pH 3.6) was prepared and incubated for 10 min at 37°C. Then 20 μL of each compound and ascorbic acid (standard) and 40 μL of FRAP reagent were added to 140 μL of distilled water in a 96-well plate producing a blue-colored solution. The solutions were kept at room temperature for 20 min in the dark and then measured at 593 nm with a microplate reader (Tecan, Switzerland) using a reagent blank composed of 40 μL of FRAP reagents in 200 μL of distilled water. A calibration curve was prepared with a serial dilution of ascorbic acid (standard). The total antioxidant capacity was calculated by interpolating the measured absorbance of the calibration curve and expressed as ascorbic acid equivalents. The results were corrected for dilution and expressed as AAE μg of ascorbic acid/g.

DPP-4 = biological target: T2, DPP-4 (Homo sapiens, UniProt P27487); experiment: Dipeptidyl peptidase IV (DPP-4) inhibitory assay; assay type: biochemical; conditions: Table 3; mean ± SEM (n = 3); NA: not active
T2 construct: purchased Cayman (Michigan, USA)
Protocol: Dipeptidyl peptidase (IV) inhibitors work by inhibiting the action of this enzyme, thereby prolonging the activity of incretins that play an important role in insulin secretion and blood glucose control regulation. DPP-4 inhibitory assay was performed as per the standard method (Cayman, USA). Firstly, 1 mg of sample was dissolved in 10% of DMSO and MeOH as the stock solution. For initial activity (100%), 10 μL of MeOH, 30 μL of diluted assay buffer, and 10 μL of diluted DPP-4 (Cayman, USA) were added to 96-well microplate. […] For background well, 10 μL of MeOH and 40 μL of diluted assay buffer were added. Then, 10 μL of prepared sample and 30 μL of diluted assay buffer were added with 10 μL of diluted DPP-4. After that, 50 μL of substrate solution was added to all wells to initiate the reaction and further incubated in the dark at 37°C for 30 min. Finally, plate was read at 360 nm of excitation wavelength and 465 nm of emission wavelength using fluorescence microplate reader (Perkin Elmer, Germany). All determinations were done in triplicate and half maximal concentration (IC50) values were calculated from the percentage of inhibition based on the linear regression analysis. The equation given below was applied to calculate the inhibitory activity (%):(5) Inhibitory activity%=Initial Activity−Sample/Initial Activity×100%.
For DPP-4 inhibitory assay, the reaction is based on the cleavage of the peptide bond by DPP releasing the free Gly-Pro-aminomethylcoumarin group, a fluorogenic substrate resulting in fluorescence excitation and emission.

T1 sequence (P80457 whole entry): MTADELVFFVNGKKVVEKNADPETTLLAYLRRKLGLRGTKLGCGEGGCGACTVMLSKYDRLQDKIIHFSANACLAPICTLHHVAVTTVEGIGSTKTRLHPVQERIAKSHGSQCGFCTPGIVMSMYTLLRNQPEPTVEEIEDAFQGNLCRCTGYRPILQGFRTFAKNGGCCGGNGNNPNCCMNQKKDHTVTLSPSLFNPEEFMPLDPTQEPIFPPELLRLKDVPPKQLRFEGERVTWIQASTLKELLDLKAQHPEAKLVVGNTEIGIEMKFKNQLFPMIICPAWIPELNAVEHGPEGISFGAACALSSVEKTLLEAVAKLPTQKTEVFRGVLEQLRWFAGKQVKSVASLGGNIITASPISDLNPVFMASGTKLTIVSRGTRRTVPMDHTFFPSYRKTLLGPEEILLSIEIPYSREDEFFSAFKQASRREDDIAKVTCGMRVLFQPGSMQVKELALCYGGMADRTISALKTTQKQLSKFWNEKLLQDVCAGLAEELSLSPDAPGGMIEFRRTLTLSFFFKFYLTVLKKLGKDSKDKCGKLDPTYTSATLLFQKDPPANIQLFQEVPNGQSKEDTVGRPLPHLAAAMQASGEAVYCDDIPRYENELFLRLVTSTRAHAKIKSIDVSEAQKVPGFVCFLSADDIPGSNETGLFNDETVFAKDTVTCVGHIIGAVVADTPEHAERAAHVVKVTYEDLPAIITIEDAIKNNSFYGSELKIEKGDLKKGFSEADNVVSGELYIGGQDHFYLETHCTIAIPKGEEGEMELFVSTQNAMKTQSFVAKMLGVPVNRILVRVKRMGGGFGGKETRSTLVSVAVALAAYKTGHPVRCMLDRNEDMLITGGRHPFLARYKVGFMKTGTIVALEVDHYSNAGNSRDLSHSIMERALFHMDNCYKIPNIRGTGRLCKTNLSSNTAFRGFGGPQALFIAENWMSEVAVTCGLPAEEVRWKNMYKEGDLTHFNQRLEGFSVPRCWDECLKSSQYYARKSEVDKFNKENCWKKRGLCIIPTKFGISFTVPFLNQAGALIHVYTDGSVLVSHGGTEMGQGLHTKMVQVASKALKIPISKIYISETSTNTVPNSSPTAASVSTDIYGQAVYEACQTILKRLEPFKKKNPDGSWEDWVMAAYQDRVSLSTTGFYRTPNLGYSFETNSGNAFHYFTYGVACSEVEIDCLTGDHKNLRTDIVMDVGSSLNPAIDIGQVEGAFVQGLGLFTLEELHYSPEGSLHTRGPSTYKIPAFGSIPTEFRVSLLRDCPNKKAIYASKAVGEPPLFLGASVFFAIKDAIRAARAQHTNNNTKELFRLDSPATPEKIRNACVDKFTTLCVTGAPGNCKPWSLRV
T2 sequence (P27487 whole entry): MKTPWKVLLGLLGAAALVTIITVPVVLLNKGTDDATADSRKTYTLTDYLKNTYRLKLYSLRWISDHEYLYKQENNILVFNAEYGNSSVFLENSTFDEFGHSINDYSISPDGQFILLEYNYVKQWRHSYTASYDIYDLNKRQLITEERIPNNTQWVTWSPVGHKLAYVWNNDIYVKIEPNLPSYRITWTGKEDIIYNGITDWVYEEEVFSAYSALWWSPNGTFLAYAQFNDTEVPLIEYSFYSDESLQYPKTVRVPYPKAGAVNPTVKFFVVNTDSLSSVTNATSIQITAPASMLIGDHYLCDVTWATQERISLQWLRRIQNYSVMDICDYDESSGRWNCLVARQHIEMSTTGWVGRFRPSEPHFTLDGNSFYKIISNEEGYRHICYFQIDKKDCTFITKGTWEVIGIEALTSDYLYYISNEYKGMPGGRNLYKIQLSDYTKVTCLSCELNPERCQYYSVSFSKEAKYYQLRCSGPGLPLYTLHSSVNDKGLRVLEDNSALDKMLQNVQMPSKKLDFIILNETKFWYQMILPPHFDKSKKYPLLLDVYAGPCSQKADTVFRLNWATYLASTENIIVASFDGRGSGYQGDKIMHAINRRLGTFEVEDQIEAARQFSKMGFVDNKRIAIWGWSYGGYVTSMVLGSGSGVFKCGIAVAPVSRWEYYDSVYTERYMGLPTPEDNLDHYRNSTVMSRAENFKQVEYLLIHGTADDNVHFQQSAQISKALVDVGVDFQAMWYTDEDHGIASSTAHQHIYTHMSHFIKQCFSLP

Row | SMILES | radical scavenging activity by dot blot (intensity of yellow spots) [1] | IC50 DPPH [2] | IC50 ABTS+ [3] | xanthine oxidase inhibitory effect (in words) [4] | FRAP antioxidant capacity [5] | FRAP (AAE μg) [5] | IC50 (DPP-4) | IC50 ([4]; xanthine oxidase inhibition, 295 nm, mean ± SEM (n = 3), NA: not active)
1 | Oc1cc(O)c2c(c1)O[C@H](c1ccc(O)c(O)c1)[C@H](O)C2 [(−)-Epicatechin] | strong radical scavenging activity | 9.92 ± 0.33^F µg/ml | 0.70 ± 0.08^G µg/ml | inactive | 152.14 ± 7.30 AAE μg of ascorbic acid/g | 152.07 ± 1.95^C AAE μg |  | 
2 | O=c1c(O)c(-c2ccc(O)cc2)oc2cc(O)cc(O)c12 [Kaempferol, 4′,3,5,7-Tetrahydroxyflavone] | strong radical scavenging activity | 10.89 ± 0.86^EF µg/ml | 1.36 ± 0.22^FG µg/ml | significant xanthine oxidase inhibitory effect | 265.65 ± 5.46 AAE μg of ascorbic acid/g | 265.65 ± 5.46^A AAE μg | 160 µM | 
3 | O=c1c(O)c(-c2ccc(O)c(O)c2)oc2cc(O)cc(O)c12 [Quercetin, 3,3′,4′,5,7-Pentahydroxyflavone] | strong radical scavenging activity | 7.76 ± 0.99^FG µg/ml | 0.83 ± 0.01^FG µg/ml | significant xanthine oxidase inhibitory effect | 148.12 ± 4.40 AAE μg of ascorbic acid/g | 138.93 ± 6.22^C AAE μg | 72 µM | 
4 | O=c1cc(-c2ccc(O)cc2)oc2c(O)c(O)cc(O)c12 [Isoscutellarein, 4′,5,7,8-Tetrahydroxyflavone] | strong radical scavenging activity | 5.23 ± 0.53^GHa µg/ml | 1.73 ± 0.06^FG µg/ml | low xanthine oxidase inhibitory activity |  | 262.91 ± 4.99^A AAE μg | 77.7 µM | > 349 µM
5 | COc1cc(OC)c2c(=O)cc(-c3ccccc3)oc2c1OC [Methyl ether (wogonin), 5,7,8-Trimethoxyflavone] | did not show any spot | >200^A µg/ml | >200^A µg/ml |  | 1.68 ± 0.18 AAE μg of ascorbic acid/g | 1.68 ± 0.18^G AAE μg | > 320 µM | 
6 | Cc1c(C)c2c(c(C)c1O)CCC(C)(C(=O)O)O2 (stereo not shown) [Trolox, trolox, reference compound] |  |  | 1.76 ± 0.15^^FG µg/ml |  |  |  |  | 
7 | Oc1cc(O)c2c(c1)O[C@H](c1ccc(O)c(O)c1)[C@@H](O)C2 [(+)-Catechin] | strong radical scavenging activity | 14.34 ± 1.55^EF µg/ml | 0.62 ± 0.05^G µg/ml | inactive | 152.07 ± 1.95 AAE μg of ascorbic acid/g | 148.12 ± 4.40^C AAE μg |  | 
8 | CC(=O)Oc1cc(OC(C)=O)c2c(=O)cc(-c3ccccc3)oc2c1OC(C)=O [Acetate (norwogonin), 5,7,8-Triacetoxyflavone] | did not show any spot | >100^B µg/ml | 78.99 ± 66.5^C µg/ml |  | 39.63 ± 1.01 AAE μg of ascorbic acid/g | 39.63 ± 1.01^E AAE μg | > 252 µM | 
9 | O=C1O[C@H]([C@@H](O)CO)C(O)=C1O [Ascorbic acid, ascorbic acid, reference compound] |  | 4.75 ± 0.91^GHa µg/ml |  |  | 114.58 AAE μg of ascorbic acid/g | 114.58 ± 0.27^Da AAE μg |  | 
